The text below walks through data of US20070112053A1, “Pharmaceutical compositions and methods using temozolomide and a protein kinase inhibitor” (priority 2005, published 2007).

In this assay the test system is U87MG (glioblastoma) xenograft tumors. As to the kind of experiment: U87MG glioblastoma xenograft tumor growth in nude mice. The assay is classed as in vivo. The conditions noted are these: for inhibition of U87MG glioblastoma xenograft tumor growth: TMZ alone, ip Day 1-5. As to the method: The following human glioblastoma xenograft model may be employed to ascertain the efficacy of the formulations and methods described herein. Human glioblastoma cell U87MG are inoculated subcutaneously into female nude mice (age 4-6 wks). Xenograft tumor growth is followed by measuring the tumor size using a caliper. Once tumor size reaches about 100 mm3 (average), mice carrying the xenograft tumors are grouped and treated with different doses of the combination of TMZ and a PKC inhibitor (e.g., enzastaurin). Likewise, human glioblastoma cell U373 may be used to establish a xenograft model.
The combination of TMZ and a PKC inhibitor (e.g., enzastaurin) for treating a cell proliferative disorder was examined using a glioblastoma xenograft model. In particular, the glioblastoma model U87MG was used to evaluate the efficacy of PKC inhibitor enzataurin as a single agent compared to TMZ (Temodar®), a chemotherapeutic drug clinically approved for treating brain tumor, as a single agent. In addition, this study looked at the efficacy of the combination of TMZ with enzastaurin in comparison to the efficacy with either agent alone.
In brief, nude mice were inoculated with U87-MG glioblastoma cells and the resultant tumors treated with control, or various concentrations of TMZ, enzastaurin, or a combination of both TMZ and enzastaurin. More specifically, 150 female nude mice (strain NU/NU), aged 5-7 weeks old were purchased from Charles River Laboratory. Four million glioblastoma cells U87-MG were mixed 1:1 (volume:volume) with Matrigel (Cat. #354234, BD Biosciences) on ice and mixtures were inoculated subcutaneously to the flank of each mouse. Dosing was initiated when the tumors reached an average size of 90 mm^3. The dosing volume was 0.2 mL. Tumor size and body weight was measured two to three times per week. […] Note that there were 10 nude mice per dosing regimen.

Molecules are shown by their SMILES.

On to `Cn1nnc2c(C(N)=O)ncn2c1=O` [TMZ, 3,4-dihydro-3-methyl-4-oxoimidazo[5,1-d]-as-tetazine-8-carboxamide], for which the “inhibition of U87MG glioblastoma xenograft tumor growth” value came to 98% (5 mpk qd), 102% (10 mpk qd) and 103% (20 mpk qd).

On to `Cn1cc(C2=C(c3cn(C4CCN(Cc5ccccn5)CC4)c4ccccc34)C(=O)NC2=O)c2ccccc21` [enzastaurin], for which the “effect on tumor growth as single agent” value (enzastaurin alone, 37.5 or 75 mpk qd, po) is “little effect on tumor growth”.
